Measured values taken from ChEMBL document CHEMBL4431368, “Development of single and mixed isoform selectivity PI3Kδ inhibitors by targeting Asn836 of PI3Kδ” (Bioorg Med Chem Lett, 2016).
The source made the active and inactive calls. The rule behind the calls is not given here.

Columns and labels:
[1] = target: Phosphatidylinositol 4,5-bisphosphate 3-kinase catalytic subunit beta isoform (Homo sapiens, UniProt P42338); assay: Inhibition of PI3Kbeta (unknown origin) expressed in baculovirus expression system by kinase-glo luminescence assay
[2] = target: Phosphatidylinositol 4,5-bisphosphate 3-kinase catalytic subunit alpha isoform (Homo sapiens, UniProt P42336); assay: Inhibition of PI3Kalpha (unknown origin) expressed in baculovirus expression system by kinase-glo luminescence assay
[3] = target: Phosphatidylinositol 4,5-bisphosphate 3-kinase catalytic subunit delta isoform (Homo sapiens, UniProt O00329, N836D); assay: Inhibition of PI3Kdelta N836D mutant (unknown origin) expressed in Sf21 cells co-expressing p85 by kinase-glo luminescence assay
[4] = target: T1, Phosphatidylinositol 4,5-bisphosphate 3-kinase catalytic subunit delta isoform (Homo sapiens, UniProt O00329); assay: Inhibition of PI3Kdelta (unknown origin) expressed in baculovirus expression system by kinase-glo luminescence assay
T1 sequence (O00329 whole entry): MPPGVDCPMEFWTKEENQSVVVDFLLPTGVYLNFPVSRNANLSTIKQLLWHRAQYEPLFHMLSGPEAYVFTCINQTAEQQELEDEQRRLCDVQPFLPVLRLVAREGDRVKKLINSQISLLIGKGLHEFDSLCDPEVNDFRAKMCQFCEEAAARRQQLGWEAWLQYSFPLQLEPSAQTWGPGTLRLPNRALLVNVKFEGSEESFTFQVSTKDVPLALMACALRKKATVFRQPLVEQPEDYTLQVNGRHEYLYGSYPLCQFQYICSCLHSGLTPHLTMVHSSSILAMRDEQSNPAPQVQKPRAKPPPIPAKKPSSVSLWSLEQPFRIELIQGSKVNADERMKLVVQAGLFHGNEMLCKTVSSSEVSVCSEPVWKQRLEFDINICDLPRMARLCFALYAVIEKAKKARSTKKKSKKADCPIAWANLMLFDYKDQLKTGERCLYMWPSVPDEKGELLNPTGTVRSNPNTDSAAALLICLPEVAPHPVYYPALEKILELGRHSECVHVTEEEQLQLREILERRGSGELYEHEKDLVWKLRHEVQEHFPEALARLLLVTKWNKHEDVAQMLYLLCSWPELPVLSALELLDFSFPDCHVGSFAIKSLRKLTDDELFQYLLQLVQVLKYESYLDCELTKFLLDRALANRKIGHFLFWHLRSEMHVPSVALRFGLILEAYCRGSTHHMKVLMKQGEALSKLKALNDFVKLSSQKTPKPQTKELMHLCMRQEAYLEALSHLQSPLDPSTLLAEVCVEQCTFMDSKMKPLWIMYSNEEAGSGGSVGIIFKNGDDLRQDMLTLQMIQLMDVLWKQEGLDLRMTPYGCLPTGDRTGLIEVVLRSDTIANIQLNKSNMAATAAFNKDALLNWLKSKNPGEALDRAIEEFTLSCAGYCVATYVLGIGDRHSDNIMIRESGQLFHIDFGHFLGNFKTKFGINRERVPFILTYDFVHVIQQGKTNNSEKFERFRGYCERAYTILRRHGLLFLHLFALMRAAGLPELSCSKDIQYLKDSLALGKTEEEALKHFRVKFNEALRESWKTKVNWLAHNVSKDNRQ

[5] = target: Phosphatidylinositol 4,5-bisphosphate 3-kinase catalytic subunit gamma isoform (Homo sapiens, UniProt P48736); assay: Inhibition of PI3Kgamma (unknown origin) expressed in baculovirus expression system by kinase-glo luminescence assay
[6] = target: T2, Phosphatidylinositol 4,5-bisphosphate 3-kinase catalytic subunit delta isoform (Homo sapiens) (UniProt O00329); assay: Inhibition of PI3Kdelta in human NAMALWA cells assessed as suppression of Akt S473 phosphorylation levels at […] after 2 hrs by Western blot analysis; assay type: cell-based
T2 sequence (whole entry): T1 sequence (O00329 whole entry)

[7] = species: Homo sapiens; assay: Selectivity ratio of IC50 for PI3Kdelta N836D mutant (unknown origin) expressed in Sf21 cells to IC50 for wild type PI3Kdelta (unknown origin) expressed in baculovirus expression system
[8] = species: Homo sapiens; assay: Selectivity ratio of IC50 for wild type PI3Kbeta (unknown origin) expressed in baculovirus expression system to IC50 for PI3Kbeta D862 mutant (unknown origin) expressed in baculovirus expression system
[9] = Inhibition of PI3Kalpha Q859D mutant (unknown origin) expressed in baculovirus expression system by kinase-glo luminescence assay; parameters: species or system Homo sapiens
[10] = Inhibition of PI3Kbeta D862 mutant (unknown origin) expressed in baculovirus expression system by kinase-glo luminescence assay; parameters: species or system Homo sapiens

Chain of Phosphatidylinositol 4,5-bisphosphate 3-kinase catalytic subunit gamma isoform (P48736 whole entry, canonical isoform): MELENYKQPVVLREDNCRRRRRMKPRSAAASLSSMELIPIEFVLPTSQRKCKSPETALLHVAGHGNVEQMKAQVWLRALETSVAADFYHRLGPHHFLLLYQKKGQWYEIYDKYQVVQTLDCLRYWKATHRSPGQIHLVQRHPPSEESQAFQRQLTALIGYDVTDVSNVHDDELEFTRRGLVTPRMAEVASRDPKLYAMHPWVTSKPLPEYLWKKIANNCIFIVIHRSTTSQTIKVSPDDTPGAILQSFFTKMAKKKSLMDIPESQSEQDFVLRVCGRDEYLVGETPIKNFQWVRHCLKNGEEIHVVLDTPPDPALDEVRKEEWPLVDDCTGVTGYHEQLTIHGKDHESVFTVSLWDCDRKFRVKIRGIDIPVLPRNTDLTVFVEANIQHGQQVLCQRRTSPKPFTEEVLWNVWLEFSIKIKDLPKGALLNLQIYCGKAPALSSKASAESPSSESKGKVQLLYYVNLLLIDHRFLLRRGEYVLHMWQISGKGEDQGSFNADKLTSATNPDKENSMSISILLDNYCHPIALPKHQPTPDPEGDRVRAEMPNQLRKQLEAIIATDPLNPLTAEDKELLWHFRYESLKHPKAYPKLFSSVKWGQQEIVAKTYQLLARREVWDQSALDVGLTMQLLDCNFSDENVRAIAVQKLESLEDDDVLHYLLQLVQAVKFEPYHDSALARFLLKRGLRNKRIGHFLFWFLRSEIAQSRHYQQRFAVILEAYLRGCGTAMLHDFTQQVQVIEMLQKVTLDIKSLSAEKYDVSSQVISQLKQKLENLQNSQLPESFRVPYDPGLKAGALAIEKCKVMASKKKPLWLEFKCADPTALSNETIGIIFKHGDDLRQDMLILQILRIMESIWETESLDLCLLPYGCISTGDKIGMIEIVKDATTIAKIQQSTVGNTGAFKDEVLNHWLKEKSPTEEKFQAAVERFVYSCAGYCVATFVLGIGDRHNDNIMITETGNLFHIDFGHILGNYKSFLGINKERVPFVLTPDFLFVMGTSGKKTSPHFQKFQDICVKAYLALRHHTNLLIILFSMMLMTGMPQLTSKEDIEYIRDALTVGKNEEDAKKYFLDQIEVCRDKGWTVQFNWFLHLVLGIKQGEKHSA
Chain of Phosphatidylinositol 4,5-bisphosphate 3-kinase catalytic subunit alpha isoform (P42336 whole entry, canonical isoform): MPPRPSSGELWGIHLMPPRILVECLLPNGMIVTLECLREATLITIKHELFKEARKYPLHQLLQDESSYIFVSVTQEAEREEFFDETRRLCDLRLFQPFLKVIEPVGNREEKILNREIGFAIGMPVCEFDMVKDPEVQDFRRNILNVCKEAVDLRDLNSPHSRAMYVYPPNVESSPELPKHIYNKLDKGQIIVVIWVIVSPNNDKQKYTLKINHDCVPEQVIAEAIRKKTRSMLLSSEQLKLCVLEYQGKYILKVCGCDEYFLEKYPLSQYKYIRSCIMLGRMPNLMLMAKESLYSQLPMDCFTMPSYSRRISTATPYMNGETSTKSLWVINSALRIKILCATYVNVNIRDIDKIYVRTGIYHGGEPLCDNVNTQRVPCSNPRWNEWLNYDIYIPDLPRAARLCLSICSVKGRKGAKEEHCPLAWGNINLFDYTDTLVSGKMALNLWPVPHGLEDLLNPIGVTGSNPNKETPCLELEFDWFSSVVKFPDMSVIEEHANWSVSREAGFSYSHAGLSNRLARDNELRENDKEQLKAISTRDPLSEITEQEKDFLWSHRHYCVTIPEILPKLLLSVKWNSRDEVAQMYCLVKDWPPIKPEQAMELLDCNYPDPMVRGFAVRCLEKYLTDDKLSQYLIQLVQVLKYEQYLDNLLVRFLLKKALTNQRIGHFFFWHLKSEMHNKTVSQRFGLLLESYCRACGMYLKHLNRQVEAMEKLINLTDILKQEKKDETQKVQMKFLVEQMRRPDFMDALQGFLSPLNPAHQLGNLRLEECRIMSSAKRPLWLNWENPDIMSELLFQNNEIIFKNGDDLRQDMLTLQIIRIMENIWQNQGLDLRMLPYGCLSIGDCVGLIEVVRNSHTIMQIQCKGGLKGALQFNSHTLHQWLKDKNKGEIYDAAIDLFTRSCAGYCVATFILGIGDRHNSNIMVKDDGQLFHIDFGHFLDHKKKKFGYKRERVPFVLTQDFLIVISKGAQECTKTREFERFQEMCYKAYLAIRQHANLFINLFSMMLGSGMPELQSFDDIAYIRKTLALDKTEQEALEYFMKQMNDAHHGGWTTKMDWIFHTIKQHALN
Chain of Phosphatidylinositol 4,5-bisphosphate 3-kinase catalytic subunit beta isoform (P42338 whole entry, canonical isoform): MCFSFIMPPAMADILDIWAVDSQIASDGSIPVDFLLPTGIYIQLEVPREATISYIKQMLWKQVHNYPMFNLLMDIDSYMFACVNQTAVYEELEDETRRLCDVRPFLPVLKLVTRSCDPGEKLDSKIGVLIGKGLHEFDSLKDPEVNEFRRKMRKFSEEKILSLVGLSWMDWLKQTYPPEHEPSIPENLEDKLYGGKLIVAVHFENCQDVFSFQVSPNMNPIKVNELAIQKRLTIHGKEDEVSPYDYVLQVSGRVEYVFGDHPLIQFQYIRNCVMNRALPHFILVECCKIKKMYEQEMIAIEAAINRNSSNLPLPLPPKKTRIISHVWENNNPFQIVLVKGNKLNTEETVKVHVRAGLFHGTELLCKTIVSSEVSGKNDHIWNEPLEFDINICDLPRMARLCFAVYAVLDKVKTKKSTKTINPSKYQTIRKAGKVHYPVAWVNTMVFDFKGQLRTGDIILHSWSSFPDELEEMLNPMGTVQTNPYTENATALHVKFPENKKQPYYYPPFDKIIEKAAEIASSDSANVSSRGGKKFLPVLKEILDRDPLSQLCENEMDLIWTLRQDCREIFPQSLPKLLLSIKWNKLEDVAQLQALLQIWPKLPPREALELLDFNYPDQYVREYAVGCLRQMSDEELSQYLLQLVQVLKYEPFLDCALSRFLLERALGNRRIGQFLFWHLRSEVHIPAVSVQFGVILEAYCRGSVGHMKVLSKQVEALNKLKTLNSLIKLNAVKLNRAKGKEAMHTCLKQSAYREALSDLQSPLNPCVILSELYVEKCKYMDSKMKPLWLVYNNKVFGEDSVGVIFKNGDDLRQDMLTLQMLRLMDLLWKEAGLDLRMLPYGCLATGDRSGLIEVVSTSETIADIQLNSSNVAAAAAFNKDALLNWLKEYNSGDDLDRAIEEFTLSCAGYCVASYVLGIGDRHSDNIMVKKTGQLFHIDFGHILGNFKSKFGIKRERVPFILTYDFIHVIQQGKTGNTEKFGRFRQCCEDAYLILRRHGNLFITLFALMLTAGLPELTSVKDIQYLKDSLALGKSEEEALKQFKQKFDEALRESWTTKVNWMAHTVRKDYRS
Chain of Phosphatidylinositol 4,5-bisphosphate 3-kinase catalytic subunit delta isoform (Homo sapiens, UniProt O00329, N836D) (O00329 whole entry N836D, canonical isoform): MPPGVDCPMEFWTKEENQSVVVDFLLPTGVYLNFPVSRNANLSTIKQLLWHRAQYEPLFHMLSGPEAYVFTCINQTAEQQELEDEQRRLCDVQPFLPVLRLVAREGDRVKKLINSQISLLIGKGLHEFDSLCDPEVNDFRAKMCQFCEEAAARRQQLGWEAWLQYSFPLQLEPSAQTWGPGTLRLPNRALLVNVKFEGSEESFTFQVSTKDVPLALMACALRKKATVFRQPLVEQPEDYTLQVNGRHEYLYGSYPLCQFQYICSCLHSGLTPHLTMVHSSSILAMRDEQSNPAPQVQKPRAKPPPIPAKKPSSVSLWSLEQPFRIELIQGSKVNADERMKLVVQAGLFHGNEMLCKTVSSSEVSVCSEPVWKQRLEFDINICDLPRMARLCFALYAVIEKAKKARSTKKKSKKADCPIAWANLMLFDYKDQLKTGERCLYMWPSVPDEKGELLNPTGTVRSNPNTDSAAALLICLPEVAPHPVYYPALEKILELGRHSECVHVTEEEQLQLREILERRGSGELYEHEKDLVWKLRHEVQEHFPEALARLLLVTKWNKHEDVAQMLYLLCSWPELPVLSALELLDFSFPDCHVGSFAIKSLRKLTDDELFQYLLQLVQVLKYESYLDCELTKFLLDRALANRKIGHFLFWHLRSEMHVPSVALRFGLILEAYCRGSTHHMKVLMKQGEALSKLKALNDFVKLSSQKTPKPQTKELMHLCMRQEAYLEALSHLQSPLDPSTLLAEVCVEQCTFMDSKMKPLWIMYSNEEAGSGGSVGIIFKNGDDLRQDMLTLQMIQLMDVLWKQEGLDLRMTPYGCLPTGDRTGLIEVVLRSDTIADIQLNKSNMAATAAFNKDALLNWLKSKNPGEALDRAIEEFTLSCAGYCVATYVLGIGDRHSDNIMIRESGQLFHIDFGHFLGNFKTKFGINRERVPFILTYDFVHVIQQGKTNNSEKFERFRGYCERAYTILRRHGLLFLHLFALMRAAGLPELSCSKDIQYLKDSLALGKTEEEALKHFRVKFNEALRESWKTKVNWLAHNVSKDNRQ

| IC50 [1] [nM] | IC50 [2] [nM] | IC50 [3] [nM] | IC50 [4] [nM] | IC50 [5] [nM] | inhibition [6] | Compound | Ratio IC50 [7] | Ratio IC50 [8] | IC50 [9] [nM] | IC50 [10] [nM] |
| --- | --- | --- | --- | --- | --- | --- | --- | --- | --- | --- |
| 217 | 183 |  | 38 | 64 |  | O=C(O)C1CCN(c2nc(N3CCOCC3)nc(-n3c(C(F)F)nc4ccccc43)n2)CC1 |  |  |  |  |
|  |  |  |  |  | Active | O=C([C@@H]1CCCN1)N1CCN(c2nc(N3CCOCC3)nc(-n3c(C(F)F)nc4ccccc43)n2)CC1 |  |  |  |  |
| 513 | 190 |  | 44 | 708 |  | NC(=O)[C@H](Cc1ccccc1)NC(=O)C1CCN(c2nc(N3CCOCC3)nc(-n3c(C(F)F)nc4ccccc43)n2)CC1 |  |  |  |  |
| 775 | 2370 | 36 | 50 | 3590 |  | O=C([C@H]1CCCCN1)N1CCN(c2nc(N3CCOCC3)nc(-n3c(C(F)F)nc4ccccc43)n2)CC1 |  |  |  |  |
| 207 | 123 |  | 40 | 434 |  | C[C@H](NC(=O)C1CCN(c2nc(N3CCOCC3)nc(-n3c(C(F)F)nc4ccccc43)n2)CC1)C(N)=O |  |  |  |  |
| 342 | 358 |  | 57 | 1980 |  | NC(=O)[C@H](Cc1ccccc1)NC(=O)[C@H]1CCCN(c2nc(N3CCOCC3)nc(-n3c(C(F)F)nc4ccccc43)n2)C1 |  |  |  |  |
| 1720 | 908 |  | 263 | 1380 |  | NC(=O)[C@H](Cc1ccccc1)NC(=O)[C@@H]1CCCN(c2nc(N3CCOCC3)nc(-n3c(C(F)F)nc4ccccc43)n2)C1 |  |  |  |  |
| 60 | 1770 | 4 | 52 | 6080 |  | O=C(CN1CCN(c2nc(N3CCOCC3)nc(-n3c(C(F)F)nc4ccccc43)n2)CC1)[C@H]1CCCN1 |  |  |  |  |
| 166 | 83 |  | 38 | 445 |  | NC(=O)CNC(=O)[C@@H]1CCCN(c2nc(N3CCOCC3)nc(-n3c(C(F)F)nc4ccccc43)n2)C1 |  |  |  |  |
| 602 | 191 |  | 144 | 440 |  | CC(C)[C@H](NC(=O)C1CCN(c2nc(N3CCOCC3)nc(-n3c(C(F)F)nc4ccccc43)n2)CC1)C(N)=O |  |  |  |  |
| 162 | 67 |  | 29 | 521 |  | NC(=O)[C@H](CO)NC(=O)C1CCN(c2nc(N3CCOCC3)nc(-n3c(C(F)F)nc4ccccc43)n2)CC1 |  |  |  |  |

Further lines, the compound ahead of its results:

| Compound | IC50 [1] [nM] | IC50 [2] [nM] | IC50 [3] [nM] | IC50 [4] [nM] | IC50 [5] [nM] | inhibition [6] | Ratio IC50 [7] | Ratio IC50 [8] | IC50 [9] [nM] | IC50 [10] [nM] |
| --- | --- | --- | --- | --- | --- | --- | --- | --- | --- | --- |
| O=C(C[C@@H]1CCCN1)N1CCN(c2nc(N3CCOCC3)nc(-n3c(C(F)F)nc4ccccc43)n2)CC1 | 146 | 2050 | 7 | 22 | 5760 |  |  |  |  |  |
| O=C([C@@H]1CCCCN1)N1CCN(c2nc(N3CCOCC3)nc(-n3c(C(F)F)nc4ccccc43)n2)CC1 | 59 | 2860 | 24 | 69 | 5530 |  |  |  |  |  |
| N[C@H]1CC[C@@H](C(=O)N2CCN(c3nc(N4CCOCC4)nc(-n4c(C(F)F)nc5ccccc54)n3)CC2)CC1 | 3360 | 3900 |  | 143 | > 10000 |  |  |  |  |  |
| NC(=O)CNC(=O)[C@H]1CCCN(c2nc(N3CCOCC3)nc(-n3c(C(F)F)nc4ccccc43)n2)C1 | 24 | 32 | 95 | 34 | 194 |  | 3 |  |  |  |
| NC(=O)CNC(=O)C1CCN(c2nc(N3CCOCC3)nc(-n3c(C(F)F)nc4ccccc43)n2)CC1 | 329 | 98 | 171 | 66 | 496 |  | 2.6 |  |  |  |
| O=C(O)[C@H]1CCCN(c2nc(N3CCOCC3)nc(-n3c(C(F)F)nc4ccccc43)n2)C1 | 215 | 40 |  | 42 | 231 |  |  |  |  |  |
| C[C@@H](NC(=O)C1CCN(c2nc(N3CCOCC3)nc(-n3c(C(F)F)nc4ccccc43)n2)CC1)C(N)=O | 601 | 114 | 1900 | 44 | 536 | Active | 43 | 5 | 100 | 123 |
| O=C(O)[C@@H]1CCCN(c2nc(N3CCOCC3)nc(-n3c(C(F)F)nc4ccccc43)n2)C1 | 428 | 183 |  | 163 | 247 |  |  |  |  |  |
| O=C([C@H]1CCCN1)N1CCN(c2nc(N3CCOCC3)nc(-n3c(C(F)F)nc4ccccc43)n2)CC1 |  | 2610 | 9 |  | 5860 | Active |  |  |  |  |
